According to paper PMC12445744, “Molecular docking to homology models of human and Trypanosoma brucei ERK8 that identified ortholog-specific inhibitors” (PLOS Neglected Tropical Diseases, 2025):
Several values for one entry are separate records, joined by “and”; a condition that tells them apart may be missing. Equal values may be shown once.

Molecular target: T1, HsERK8 (Homo sapiens, UniProt Q8TD08)
T1 construct: plasmid pGEX2T expressing the full-length hERK8 coding region; made in house; host or cells: Escherichia coli Rosetta 2 (DE3)
T1 sequence (Q8TD08 1-544): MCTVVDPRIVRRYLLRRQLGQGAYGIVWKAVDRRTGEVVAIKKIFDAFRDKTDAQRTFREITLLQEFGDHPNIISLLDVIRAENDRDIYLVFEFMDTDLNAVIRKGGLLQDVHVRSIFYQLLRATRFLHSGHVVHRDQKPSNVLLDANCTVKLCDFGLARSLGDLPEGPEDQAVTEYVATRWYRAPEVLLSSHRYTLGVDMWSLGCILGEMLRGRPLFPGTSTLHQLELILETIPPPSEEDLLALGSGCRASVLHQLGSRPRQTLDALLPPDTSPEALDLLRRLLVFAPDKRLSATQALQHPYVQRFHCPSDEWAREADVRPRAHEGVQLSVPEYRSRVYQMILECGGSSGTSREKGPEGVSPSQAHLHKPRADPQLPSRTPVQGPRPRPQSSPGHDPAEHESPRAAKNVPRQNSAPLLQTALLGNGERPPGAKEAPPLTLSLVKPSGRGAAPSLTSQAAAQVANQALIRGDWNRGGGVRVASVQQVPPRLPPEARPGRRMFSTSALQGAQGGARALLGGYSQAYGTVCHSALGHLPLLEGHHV
Experiment: Luciferase-based kinase inhibition assay (ATP luminescence), GST-tagged HsERK8 with MBP substrate
Format: biochemical
Settings: for raw luminescence, HsERK8: sheet Kinase_glo_080924_IFPS (2), replicate wells, listed as Ida
Procedure: Escherichia coli strain Rosetta 2 (DE3) (Cat# 71397, MilliporeSigma, Burlington, MA) was transformed with the plasmid pGEX2T expressing the full-length hERK8 coding region or pGSTAg expressing the full-length TbERK8 coding region. One liter of Terrific Broth media containing 100 μg/ml Ampicillin and 30 μg/ml chloramphenicol in 2 L baffled flasks was inoculated with 25 mL from an overnight culture of Rosetta 2 strains harboring either the pGEX2T-hERK8 or pGSTAg-TbERK8 plasmid. Two baffled flasks were inoculated with each overnight strain and incubated and shaken at 175 RPM in a New Brunswick Innova 44R Incubator Shaker (Fischer Scientific, Pittsburgh, PA) at 37 °C until the cultures reached an O.D.600 of 0.94. Once the cultures in the flask reached the target O.D.600, the flasks were cooled to 4 °C in an ice water bath. The cooled cultures were induced by adding isopropyl β-D-1-thiogalactopyranoside (IPTG) to a final concentration of 0.1 mM and shaken at 16 °C for 16 hours at 175 RPM in a New Brunswick Innova 44R Incubator Shaker (Fischer Scientific, Pittsburgh, PA). On the next day, the cultures were pelleted by centrifugation at 9000 xg in a JLA 10.500 rotor (Beckman Coulter; Brea, CA), and the media was decanted. The pellet was flash-frozen in liquid nitrogen and then thawed on ice. The thawed pellet was resuspended in lysis buffer (25 mM Tris, 75 mM NaCl, 0.5% TritonX-100 and 0.5% Nonidet P-40, 1 mM phenylmethanesulfonyl fluoride, 1 mM benzamidine⋅HCl) and lysed using a microfluidizer M-110P from Microfluidics (Westwood, MA). The crude lysates were clarified by centrifugation at 140,000 xg in a 45Ti rotor (Beckman Coulter, Brea, CA) for 30 min at 4°C. The clarified lysate was loaded by gravity to a 3 mL glutathione agarose resin column (Cat# G-250–10, GOLDBIO, St. Louis, MO) formed in a 1.5 × 20 cm glass chromatography column (Cat# 7371522, Bio-Rad, Hercules, CA). The column was washed with 30 mL of PBS (pH 7.4) containing 1 mM DTT. Elution buffer (50 mM Tris buffer pH 8.0 containing 10 mM reduced glutathione and 1 mM DTT was added to the washed column), and 1 mL fractions were collected by gravity and examined by SDS-PAGE stained by Coomassie dye. Peak fractions pooled from the elution were dialyzed (4x 1:500 dilutions) in kinase buffer (30 mM Tris, pH 7.4, 10 mM MgCl2, 1 mM DTT, 5% glycerol).
We performed kinase assays in buffer K (30 mM Tris pH 7.4, 10 mM MgCl2, 1 mM DTT, 5% glycerol, 50 μM ATP, and 0.1 mg/mL BSA) at 30°C for 30 min in 30 μL reactions. GST-tagged HsERK8 and TbERK8 were tested using myelin basic protein (MBP) (Cat# 13–110, Millipore, Darmstadt, Germany) as the substrate at increasing concentrations to determine the optimal activity for the assay. ATP consumption was determined by adding equal volumes of the kinase assay reagent (Promega, Cat# V5601, Madison, WI) following the manufacturer’s protocol. Luminescence was measured using the microplate reader (SpectraMax L, Molecular Devices, Sunnyvale, CA).
These compounds were screened for kinase inhibition utilizing a luciferase-based assay. Briefly, the kinases were tested using MBP as the substrate at a 14-fold molar excess in 384-well flat-bottom white plates (BRANDTECH Scientific, Cat# 781681, Essex, CT). These compounds were tested at concentrations ranging from […] to 150 nM. The kinases plus MBP substrate reactions were incubated with each inhibitor for 30 minutes at 30°C. Equal volumes of kinase assay mix Promega (Cat# V5601, Madison, WI) were added to the kinase/inhibitor reaction after 30 minutes, following the manufacturer’s protocol. ATP luminescence was measured using a microplate reader (SpectraMax L, Molecular Devices, Sunnyvale, CA). IC50 values were calculated from assays done in triplicate by fitting the data using Prism 8.1.1 (GraphPad).

CC(=O)[C@]1(O)Cc2c(O)c3c(c(O)c2[C@@H](O[C@H]2C[C@H](N)[C@H](O)[C@H](C)O2)C1)C(=O)c1ccccc1C3=O [Idarubicin]
raw luminescence, HsERK8 (0.00015 mM compound): 5033.01 RLU and 5464.22 RLU and 4680.41 RLU
raw luminescence, HsERK8 (0.00061 mM compound): 4929.7 RLU and 5104.88 RLU and 5152.04 RLU
raw luminescence, HsERK8 (0.00244 mM compound): 4819.65 RLU and 4756.77 RLU and 4179.58 RLU
raw luminescence, HsERK8 (0.00977 mM compound): 4606.3 RLU and 4691.64 RLU and 4170.6 RLU
raw luminescence, HsERK8 (0.03906 mM compound): 4799.44 RLU and 4835.38 RLU and 4925.21 RLU
raw luminescence, HsERK8 (0.15625 mM compound): 4702.87 RLU and 5131.83 RLU and 4550.15 RLU
raw luminescence, HsERK8 (0.62500 mM compound): 4750.03 RLU and 4873.56 RLU and 4527.69 RLU
raw luminescence, HsERK8 (2.50000 mM compound): 3723.67 RLU and 3768.58 RLU and 3368.82 RLU
raw luminescence, HsERK8 (10.00000 mM compound, signal = ATP left): 988.186 RLU and 1334.05 RLU and 1307.1 RLU
inhibitory effect on kinase activity of HsERK8 (concentrations below 4.0 x10^-5 M (above this the red compound blocked luminescence)): no detectible (n/d) inhibitory effect
